Measured values from a melting point compilation (Tetko et al.; mined from patent text by program, amines drawn as free bases though some values may be those of a salt).

Compound | melting point
CCC(O)C(=O)Nc1c(C)c(C)c2c(c1C)C(c1ccc(C(C)C)cc1)CO2 (configuration not stated) | 146 to 147 °C
FC(F)(F)c1ccc(CN2CC=C(/C=C/c3ccccc3)CC2)cc1 | 125 to 127 °C
CC(=O)C(=O)CCCCCCOc1ccc(-c2ccccc2)cc1 | 110 to 111 °C
NC(=O)NN=Cc1ccc(Oc2ccc3c(c2)OCO3)cc1 | 225 to 226 °C
Cc1ccc2nc(C)n(C3CCC(=O)NC3=O)c(=O)c2c1 (configuration not stated) | 270 to 272 °C
C#Cc1cccc(C(=O)OCC)c1 | 36 to 38 °C
CC(CC#N)C(C#N)(c1cccc(C(F)(F)F)c1)N1CCOCC1 (configuration not stated) | 115 to 118 °C
CC1(c2ccc(F)cc2)OC(C=Cc2ccsc2)=CC1=O (configuration not stated) | 97 to 98 °C
COc1ccc(S(=O)(=O)C(C)(CC=Cc2ccccc2)C(=O)NO)cc1 (configuration not stated) | 162 to 164 °C
COc1ccc(-c2cc(F)cc3c2NC(CN)CO3)c(C)c1 (configuration not stated) | 82 °C
COC(=O)c1nc(-c2ccc(F)c(C)c2F)cc(NC(C)=O)c1Cl | 152 to 153 °C
CCOC(=O)C1=C(Cl)N=C(C)N(C(=O)OC)C1c1cccc([N+](=O)[O-])c1 (configuration not stated) | 113 to 114 °C
CNc1cc(OC)c(OC)cc1C(C)=O | 121 to 124 °C
O=C(Nc1ccc(F)cc1F)C1C(=O)N2c3ccccc3Sc3cccc1c32 (configuration not stated) | 208 to 209 °C
O=[N+]([O-])c1ccc(Oc2ccc(Oc3ccc(Oc4ccc(Oc5ccc([N+](=O)[O-])cc5)cc4)cc3)cc2)cc1 | 142 to 143 °C
Nc1nc2c(s1)C(=O)CCC2 | 259 to 262 °C
C=C(Cc1ccc(Cl)cc1)C(=O)O | 78 to 86 °C
CC(=O)CN1C(=O)c2ccccc2C12OCCO2 | 91 to 93 °C
CCc1nc(/C=C/c2cn(-c3ccccc3)nc2OCc2cc(OCc3nc(-c4ccc(CC(=O)O)cc4)oc3C)no2)cs1 | 156 to 158 °C
CC(C)N(C(=O)c1c(Cl)cccc1[Si](C)(C)C)C(C)C | 96 to 97.5 °C
CN1C(=O)c2ccccc2NC(=O)C1c1ccccc1 (configuration not stated) | 242 to 244 °C
CC(C)(C)OC(=O)N[C@H]1CCCC[C@@H]1O | 103 to 105 °C
CC1(C)Oc2ccc(C#N)cc2[C@@H](NC(=NC#N)Oc2ccccc2)[C@@H]1O (relative stereo) | 186 to 188 °C
COCOc1c(NC(=O)NN)cc(OC)cc1C(C)(C)C | 132 to 134 °C
O=C(COc1ccc(O)cc1)N1CCN(CC(O)Cn2c3ccccc3c3ccccc32)CC1 (configuration not stated) | 155 °C
Cc1c(C#N)ccc([N+](=O)[O-])c1C#N | 122 to 124 °C

Compound | melting point
CCCCN(CCCC)CCCOc1ccc(S(=O)(=O)c2c(C(C)(C)C)cn3ccccc23)cc1 | 90 to 92 °C
COc1ccc(Cn2c(=O)c3ccccc3n(CCCCl)c2=O)cc1 | 124 to 125 °C
Cc1cc(C(=O)Nc2cc(-c3c(-c4ccc(F)c(C)c4)nc4cccnn34)ccn2)cc(Cl)n1 | 298 to 300 °C
CCn1nc(-c2cccc(F)c2)c(C(C)=O)c(Nc2cccc3ncccc23)c1=O | 205 to 207 °C
COc1ccc(C(=O)Nc2ccccc2)cc1NS(=O)(=O)c1ccc(Cl)c(Cl)c1 | 191 to 193 °C
C[C@@H]1C(=O)c2ccccc2O[C@H]1c1ccccc1 (relative stereo) | 99 to 100 °C
CCN(CC)c1ccc(C2(c3ccc(N(C)C)cc3)OC(=O)c3cc(N(C)C)ccc32)c(C)c1 (configuration not stated) | 190 to 195 °C
COC(=O)c1c(O)ccnc1C(F)(F)F | 78 to 82 °C
Nc1nc(-c2ccc(NC(=O)CN(Cc3ccccc3)C(=O)C3CCCCC3)cc2)cs1 | 214 to 216 °C
COC(=O)C1(C)CN(C(=O)Nc2ccc(C(F)(F)F)cc2)N=C1c1ccc(Cl)cc1 (configuration not stated) | 143 to 146 °C
COC(=O)C1=C(C)NC(C)=C(P(=O)(OC)OC)C1c1cccc([N+](=O)[O-])c1 (configuration not stated) | 221 to 223 °C
O=[N+]([O-])c1ccc2c(c1)NCc1ccccc1O2 | 154 to 156 °C
CC(=O)NCC=C1CCc2ccc3nn(C)cc3c21 | 200 to 202 °C
CN1Cc2c(Cl)cccc2SCC1=O | 122 to 125 °C
CC(=O)c1ccc(S(=O)(=O)Nc2ccc(Cl)cn2)cc1 | 181 to 182 °C
O=C(c1cc2c3ccccc3n(Cc3ccccc3)c2s1)N1CCOCC1 | 199 to 201 °C
CSC(=NC(=O)N(C)C)N(C)C(=O)Nc1ccccc1 | 74 to 77 °C
O=C(NO)c1ccc2c(c1)CCN(C(=O)C1CC1)C2 | 90 °C
COC(=O)Cc1cc(NC(=O)OC(C)(C)C)c([N+](=O)[O-])cc1C#Cc1ccccc1 | 134 °C
CCCCc1cc(OCc2ccc(C#N)cc2)c2ccccc2n1 | 74 °C
O=S(=O)(c1ccc(Cl)cc1)c1c(-c2ccc(Cl)cc2)[nH]c(C(F)(F)F)c1Br | > 230 °C
Nc1ccc(C(=O)c2ccccc2)c(Cl)c1 | 120 to 130 °C
CC(C)(O)CCOc1c(-c2ccc(S(C)(=O)=O)cc2)cnn(-c2ccc(F)c(Cl)c2)c1=O | 108 to 110 °C
CN(C)C=Nc1ccc(-c2ncnn2-c2ccc(F)cc2)cc1 | 159 to 161 °C
CC(Cc1ccc(OCCO)cc1)NCC(O)c1ccccc1F (configuration not stated) | 80 to 95 °C
CCC(=O)C1CCC2C3CCC4CC(=O)CCC4(C)C3C(=O)CC12C (configuration not stated) | 148 °C

Compound | melting point
O=C(O)Cn1c(=O)c(=O)[nH]c2ccc3ccc(-n4ccc(CN5CCN(C(c6ccccc6)c6ccccc6)CC5)c4)cc3c21 | > 250 °C
CCN1CCN(c2cc3c(cc2F)c(=O)c(C(=O)O)c2n3C(C)S2)CC1 (configuration not stated) | 211 to 214 °C
CC(C)n1nc(-c2c(-c3ccccc3)nn3ccc(N4CCN(Cc5ccccc5)CC4)cc23)ccc1=O | 136 to 138 °C
COc1ccc2cccc3c2c1C(=O)C3=O | 218 to 220 °C
NS(=O)(=O)c1c(CF)nsc1OCC(F)(F)F | 70 to 73 °C
CCN(CC)CCOc1ccc(C(O)(CC)c2ccc(Cl)cc2)cc1 (configuration not stated) | 50 to 51 °C
Cc1ccc2[nH]cc(C3=C(c4cn(C)c5ccc(C)cc45)C(=O)N(C)C3=O)c2c1 | 110 to 112 °C
CN(C)CCn1c2ccc(O)cc2c2c3c(c(-c4ccccc4)cc21)C(=O)NC3=O | 283 to 286 °C
CC(=O)SC(C(=O)c1ccccc1)C(C)C(=O)N1C(c2cccc(C(F)(F)F)c2)SC[C@H]1C(=O)O (some centres not stated) | 152 to 154 °C
Oc1c(CCc2ccccc2)cnc2c(-c3cc(-c4ccccc4)cs3)cnn12 | 278 to 285 °C
CC1NC(=S)NN=C1c1ccccc1 (configuration not stated) | 213 to 214 °C
Cc1ccc(Oc2ccc(C3=CC=CN4CCS(=O)(=O)N=C34)cc2)cc1 | 248 to 249 °C
CCCc1cc(=O)[nH]c2cc(OC)cc(OC)c12 | 193 to 196 °C
Nc1ccccc1C(=O)OCCN1CCN(c2cccc(Cl)c2)CC1 | 76 °C
CN1C(=O)CC(c2ccccc2)C1C(O)C=Cc1ccc(F)cc1 (configuration not stated) | 189 to 191 °C
NCC1CC(CCC(=O)O)=NO1 (configuration not stated) | 201 °C
O=C(Nc1nc2ccc(Sc3nnc4ccc(-c5cccc(F)c5)cn34)cc2s1)C1CC1 | > 260 °C
COCc1c(S(C)(=O)=O)ccc(C(=O)O)c1C | 129 to 131 °C
Cc1c(SCCCn2ccnc2)ccnc1CSc1ccncc1 | 117 to 119 °C
O=c1ncc(Br)cn1CC(O)C(Cl)(Cl)Cl (configuration not stated) | 210 to 212 °C
CCCCN=C(CS(C)=O)c1cc2ccccc2cc1O (configuration not stated) | 162 to 164 °C
O=C1c2cc(Br)ccc2COc2ccc(Br)cc21 | 193 to 194 °C
O=C(O)c1ccccc1Oc1ccc2c(c1)CC[C@H](CNC[C@H](O)COc1ccccc1)O2 | 188 °C
Cc1ccc(Cl)cc1N1CCCN(C(C)C)C1=S | 176 to 178 °C
CCCCCCCCCCCCc1nnc(C(C(=O)Nc2c(C(C)C)cccc2C(C)C)c2ccccc2)o1 (configuration not stated) | 82 to 84 °C
COc1nc(C)c(C)cc1N | 56 to 58 °C

Compound | melting point
Nc1ccc(S(=O)(=O)c2cc(-c3ccccc3Cl)nc(N3CCCC3)c2)cc1 | 188 to 190 °C
Clc1cccc(CSc2ccncc2)c1 | 222 to 224 °C
Cc1ccc(CCCNC(=O)Cc2ccc(OCCN)c([N+](=O)[O-])c2)cc1C | 98 °C
COc1ccc(Cl)cc1C(=O)NCCc1ccc(-c2ccc(F)cc2)c(S(N)(=O)=O)c1 | 195 °C
CCCCCCNC(=O)c1cnc2cccc(C)n2c1=O | 116 to 118 °C
CCCC(=O)Oc1c(-c2ccc(-c3ccccc3)cc2)nc2ccccc2c1C(=O)O | 195 to 196 °C
Cc1ccc(NC(=O)Oc2ccc3c(c2)NCCC3)cc1 | 128 °C
CCCCc1nc2sccc2c(=O)n1CCC | 70 to 72 °C
CC(C)(C)c1cc(CN(c2cccnc2)S(=O)(=O)c2ccc([N+](=O)[O-])cc2)cc(C(C)(C)C)c1O | 159 to 160 °C
COC(=O)C1Oc2ccccc2Cc2ccc(OC)cc2O1 (configuration not stated) | 93 to 95 °C
O=C(CS(=O)c1ccc(Cl)cc1)c1ccccc1 (configuration not stated) | 129 to 130 °C
CN1CCN(c2cc(Br)cc3c2c(=O)n(Cc2ccccc2Cl)c(=O)n3Cc2ccccc2)CC1 | 104 to 108 °C
Cc1ccccc1C(=O)NCN1CCN(c2ncccc2C#N)CC1 | 124 to 127 °C
O=C(O)COc1ccc(C(=CC(=O)NCc2cccnc2)c2ccccc2)cc1 | 187 to 189 °C
O=C1CC(c2ccc(Br)cc2)Oc2ccc(Br)cc21 (configuration not stated) | 115 to 117 °C
COC(=O)CCCc1cc2nc(Cl)ccc2n1S(=O)(=O)c1ccc(N(C)C)cc1 | 188 °C
Cc1[nH]c2ccc(CCOS(C)(=O)=O)cc2c1C(=O)OCc1ccccc1 | 122 to 124 °C
COCCN(C)Cc1c(-c2ccc(NC(=O)NOC)cc2)sc2c1c(=O)n(-c1ccc3c(c1)OCCO3)c(=O)n2Cc1c(F)cccc1F | 155 to 156 °C
COc1ccc2[nH]cc(CC(=O)N3CCN(c4ccc(N)cc4)CC3)c2c1 | 119 to 120 °C
CC(=N)c1ccccc1O | 137 to 139 °C
CN(C)C=NS(=O)(=O)c1cc2ccncc2s1 | 169 to 171 °C
CC(=O)C(C)(C)Nc1ccccc1 | 65 to 66 °C
Cc1oc2c(C(O)CN)cccc2c1C (configuration not stated) | 73 °C
CSc1ccc2c(c1)CN(C(C)C)S(=O)(=O)N2CCCl | 74 to 75 °C
